Measured values published in patent US20260055142A1, “PHARMACEUTICAL USE OF POLYPEPTIDE IN PREPARATION OF DRUGS FOR TREATING AND/OR PREVENTING DIABETES AND OBESITY AND RELATED DISEASES THEREOF” (GUANGDONG RAYNOVENT BIOTECH CO., LTD., priority 2022, published 2026).
pEC50: −log10 of the molar value.

Columns and labels:
mouse model of obesity = test: In vivo efficacy test in mouse model of obesity; conditions: high-fat diet obese mice, SC Q3d for 22 days; 10 nmol/kg (Semaglutide 30 nmol/kg)
From the text: To study the weight-lowering effect of the series of polypeptides of the present application in animal model of obesity, and to compare them with the marketed counterparts, Tirzepatide and Semaglutide. Mouse model of obesity was obtained by induction with high-fat diet following the reference literature (MOLECULAR METABOLISM, 18 (2018), P3-14). The specific experimental procedure was as follows: the experimental mice were fed with high-fat diet (Research Diet D12492) for 13 weeks. […] These findings indicated the successful establishment of animal models. The test animals were divided into groups. An appropriate amount of the test samples were added into 20 mM sodium citrate buffer following the experimental protocol, and the mixture was vortexed at room temperature to obtain clear solutions of varying concentrations. The obtained solutions were frozen for further use. During the experiment, animals in the model group and the dosing group were administered by means of subcutaneous injection on the outer thighs. The dosing regimen was once every 3 days […]), for a total period of 22 days. Details were as follows. [table] […] After completing the entire dosing test cycle, the test mice were weighed, and the results were shown below.

[1] = test system: Db/db (Lepr leptin receptor deficient) mice; test: In vivo efficacy test in mouse model of diabetes; conditions: for Change rate of glycosylated hemoglobin: “−” indicates decrease
From the text: To study the efficacy of the series of polypeptides of the present application in animal model of diabetes, and to compare them with the marketed counterpart Tirzepatide as reported in the literature (MOLECULAR METABOLISM, 18 (2018), P3-14). The glucose-lowering effect of Tirzepatide is much better than that of Semaglutide, and thus Semaglutide was not included in this experiment for comparison. Db/db (Lepr leptin receptor deficient) mice have typical clinical symptoms of diabetes such as extreme obesity, hyperphagia, thirst, and polyuria, and they are ideal animal model of type II diabetes. […] The test animals were divided into groups. An appropriate amount of the test samples were added into 20 mM sodium citrate buffer following the experimental protocol, and the mixture was vortexed at room temperature to obtain clear solutions of varying concentrations. The obtained solutions were frozen for further use. During the experiment, animals in the normal control group, the model group and the dosing group were administered by means of subcutaneous injection on the outer thighs. The dosing regimen was once a day (Qd), for a total period of 4 weeks. Details were as follows: [table] […] The fasting blood glucose level and the change rate of glycosylated hemoglobin level in the test mice were dynamically monitored during the experiment.

GIPR = biological target: T1, GIPR (Homo sapiens, UniProt P48546); test: In vitro GIPR agonistic activity test (cAMP kit); format: cell-based; conditions: CHO host cell; without 1% HSA
T1 construct: host or cells: CHO
T1 sequence (P48546 22-466): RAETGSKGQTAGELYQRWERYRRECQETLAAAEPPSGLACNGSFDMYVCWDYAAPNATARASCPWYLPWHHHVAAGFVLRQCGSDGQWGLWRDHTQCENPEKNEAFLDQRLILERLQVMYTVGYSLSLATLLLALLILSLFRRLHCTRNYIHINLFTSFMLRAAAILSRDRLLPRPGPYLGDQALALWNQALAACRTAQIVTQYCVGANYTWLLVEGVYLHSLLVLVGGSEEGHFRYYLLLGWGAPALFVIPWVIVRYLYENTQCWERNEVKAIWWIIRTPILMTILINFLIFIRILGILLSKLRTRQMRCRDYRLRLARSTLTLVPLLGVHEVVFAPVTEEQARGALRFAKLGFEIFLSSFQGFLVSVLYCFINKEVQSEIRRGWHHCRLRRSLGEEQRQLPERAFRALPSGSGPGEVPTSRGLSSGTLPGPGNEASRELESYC
Procedure: The cell lines were constructed by Wuxi […] (Shanghai) Co., Ltd. See details in Table 1 below. […] The test compounds were diluted at a 4-fold dilution factor in 10 points, starting from an initial concentration of 30 μM.

GLP-1R = biological target: T2, GLP-1R (Homo sapiens, UniProt P43220); test: In vitro GLP-1R agonistic activity test (cAMP kit); format: cell-based; conditions: HEK293 host cell; without 1% HSA
T2 construct: host or cells: HEK293
Procedure: The cell lines were constructed by Wuxi […] (Shanghai) Co., Ltd. See details in Table 1 below. [table] The test compounds were diluted at a 4-fold dilution factor in 10 points, starting from an initial concentration of 30 μM. […]

T2 sequence (P43220 24-463, species assumed): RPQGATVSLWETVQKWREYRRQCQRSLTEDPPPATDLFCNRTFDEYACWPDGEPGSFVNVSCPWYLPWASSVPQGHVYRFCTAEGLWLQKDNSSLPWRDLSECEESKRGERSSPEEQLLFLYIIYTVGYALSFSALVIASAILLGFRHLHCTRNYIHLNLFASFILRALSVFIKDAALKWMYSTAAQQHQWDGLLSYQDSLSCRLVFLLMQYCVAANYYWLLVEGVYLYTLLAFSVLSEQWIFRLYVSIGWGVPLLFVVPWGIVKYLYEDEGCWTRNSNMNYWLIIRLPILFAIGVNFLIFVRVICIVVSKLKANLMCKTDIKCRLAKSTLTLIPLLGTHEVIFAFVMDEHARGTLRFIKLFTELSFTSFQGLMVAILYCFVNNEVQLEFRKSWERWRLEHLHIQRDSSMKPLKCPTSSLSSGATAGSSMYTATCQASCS

Compound	Weight change rate (mouse model of obesity)	Fasting blood glucose ([1]; Day 0, 5 nmol/kg SC Qd)	Fasting blood glucose ([1]; Day 7, 5 nmol/kg SC Qd)	Fasting blood glucose ([1]; Day 14, 5 nmol/kg SC Qd)	Change rate of glycosylated hemoglobin ([1]; Day 14, 5 nmol/kg SC Qd)	Fasting blood glucose ([1]; Day 21, 5 nmol/kg SC Qd)	Change rate of glycosylated hemoglobin ([1]; Day 21, 5 nmol/kg SC Qd)	Change rate of glycosylated hemoglobin ([1]; Day 29, 5 nmol/kg SC Qd)	pEC50 (GIPR)	pEC50 (GLP-1R)
Tirzepatide	−10.20%	26.7 ± 1.4 mmol/L	11.6 ± 1.4 mmol/L	12.6 ± 1.6 mmol/L	−15.9 ± 5.4%	14.0 ± 1.4 mmol/L	−14.3 ± 4.9%	−10.2 ± 5.7%		
CC[C@H](C)[C@H](NC(=O)[C@H](CC(C)C)NC(=O)[C@H](Cc1c[nH]c2ccccc12)NC(=O)[C@H](C)NC(=O)[C@@H](NC(=O)[C@H](Cc1ccccc1)NC(=O)[C@H](C)NC(=O)[C@@H]1CCCCNC(=O)CN(C(=O)COCCOCCNC(=O)COCCOCCNC(=O)CC[C@H](NC(=O)CCCCCCCCCCCCCCCCCCC(=O)O)C(=O)O)CC(=O)NCCCC[C@H](NC(=O)[C@H](CCCCN)NC(=O)[C@H](CC(=O)O)NC(=O)[C@H](CC(C)C)NC(=O)C(C)(C)NC(=O)[C@@H](NC(=O)[C@H](CO)NC(=O)[C@H](Cc2ccc(O)cc2)NC(=O)[C@H](CC(=O)O)NC(=O)[C@H](CO)NC(=O)[C@@H](NC(=O)[C@H](Cc2ccccc2)NC(=O)[C@@H](NC(=O)CNC(=O)[C@H](CCC(=O)O)NC(=O)C(C)(C)NC(=O)[C@@H](N)Cc2ccc(O)cc2)[C@@H](C)O)[C@@H](C)O)[C@@H](C)CC)C(=O)N[C@@H](C)C(=O)N[C@@H](CCC(N)=O)C(=O)N1)C(C)C)C(=O)N[C@@H](C)C(=O)NCC(=O)NCC(=O)N1CCC[C@H]1C(=O)N[C@@H](CO)C(=O)N[C@@H](CO)C(=O)NCC(=O)N[C@@H](C)C(=O)N1CCC[C@H]1C(=O)N1CCC[C@H]1C(=O)N1CCC[C@H]1C(=O)N[C@@H](CO)C(N)=O [WX-007]									9.40	10.59
